Our source for the DC50, IC50 and EC50 values is patent US20230391772A1, “METHODS AND COMPOSITIONS FOR TARGETED PROTEIN DEGRADATION” (Ranok Therapeutics (Hangzhou) Co. Ltd., priority 2020, published 2023).

The target of test [1] is T1, KRAS(G12C) (Homo sapiens, UniProt P01116, G12C). In words: KRAS(G12C) Western blot protein degradation assay in LU65A cells. Type of test: cell-based. Also noted: LU65A human lung cancer cell line, which expresses KRAS(G12C); host or cells: LU65A. The note with it: 6 hr. The method in brief: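 Cells treated with compound at various concentrations at 37 °C for 48 hr (MIA PaCa-2) or 6 hr (LU65A), then lysed in RIPA. Protein-normalized lysates immunoblotted for KRAS with β-actin, fluorescence quantified; DC50 is the concentration giving 50% of maximal KRAS degradation.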
T1 sequence (P01116 1-188 isoform P01116-2 G12C): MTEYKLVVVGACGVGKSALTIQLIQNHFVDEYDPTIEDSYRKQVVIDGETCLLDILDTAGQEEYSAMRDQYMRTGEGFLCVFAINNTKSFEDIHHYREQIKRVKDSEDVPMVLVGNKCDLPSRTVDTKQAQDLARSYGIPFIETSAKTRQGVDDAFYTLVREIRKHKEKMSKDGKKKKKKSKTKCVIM
In general terms: A western blot detects proteins with antibodies after separation by electrophoresis.

Test [2] deals with T1, KRAS(G12C). In words: KRAS(G12C)/SOS1 homogeneous time-resolved fluorescence (HTRF) assay. Also on record: purchased Cisbio 63ADK000CB16PEG. The note with it: absence of GTP, 4° C. for 3 hr, read-out: KRAS (G12C) binding. In a few lines:
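HTRF kit measuring compound-induced block of KRAS(G12C)-SOS1 interaction without GTP. Compounds tested as 3-fold serial dilutions down to 1.02 nM, incubated with reaction components 3 h at 4 °C in sealed plates before fluorescence read.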

Test [3] addresses T2, HSP90a protein (Homo sapiens, UniProt P07900).
T2 construct: purchased BPS Bioscience 50298
In words: HSP90α-binding fluorescent polarization (FP) assay, BODIPY-labeled RNK04010 probe. The note with it: FP competition with RNK04010 (BODIPY-labeled), 5 nM, 300 min at 25° C. In a few lines:
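Polarization signal was read after equilibration at 25° C, for 120 min with FITC-geldanamycin or 300 min with the BODIPY-tagged RNK04010 probe, each at 5 nM final. Compounds spanned 20 μM down to 5.2 nM in 2.5-fold dilutions against the HSP90a N-terminal domain.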

The test system of test [4] is MIA PaCa-2 human pancreatic carcinoma. In words: MIA PaCa-2 CCK-8 proliferation assay. Type of test: cell-based. The note with it: Homo sapiens, MIA PaCa-2, 72 h, MIA PaCa-2 cells. The method in brief:
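MIA PaCa-2 (2 copies KRAS(G12C)), NCI-H358 and NCI-H23 (1 copy KRAS(G12C) each) were exposed to compound in 3-fold serial dilutions from 20 μM to 1.02 nM. Viability was read as CCK-8 absorbance, and % inhibition was computed against DMSO-treated cells, with cell-free DMSO medium as blank.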

With `C=C(F)C(=O)N1CCN(c2nc(OCCN3CCN(C(=O)C4CCN(Cc5ccc(-n6c(O)nnc6-c6cc(C(C)C)c(O)cc6O)cc5)CC4)CC3)nc3c2CCN(c2cccc4cccc(Cl)c24)C3)C[C@@H]1CC#N` [Compound 224, (S)-2-(4-(7-(8-chloronaphthalen-1-yl)-2-(2-(4-(1-(4-(3-(2,4-dihydroxy-5-isopropylphenyl)-5-hydroxy-4H-1,2,4-triazol-4-yl)benzyl)piperidine-4-carbonyl)piperazin-1-yl)ethoxy)-5,6,7,8-tetrahydropyrido[3,4-d]pyrimidin-4-yl)-1-(2-fluoroacryloyl)piperazin-2-yl)acetonitrile], in test [1], the DC50 (in general, the concentration at which degradation of the target reaches its halfway point) is over 1000 nM. Moreover, the IC50 is over 1000 nM in test [2] and under 100 nM in test [3]. Besides, the EC50 (usually the concentration needed to bring the measured effect to its halfway point) in test [4] is 100 to 1000 nM.

As to `C=CC(=O)N1CCN(c2nc(OC[C@@H]3CC[C@H](CN4CCN(Cc5ccc(-n6c(O)nnc6-c6cc(C)c(O)cc6O)cc5)CC4)N3C)nc3c2CCN(c2cccc4cccc(Cl)c24)C3)C[C@@H]1CC#N` [Compound 227, 2-[(2S)-4-[7-(8-chloronaphthalen-1-yl)-2-{[(2S,5R)-5-{[4-({4-[3-(2,4-dihydroxy-5-methylphenyl)-5-hydroxy-1,2,4-triazol-4-yl]phenyl}methyl)piperazin-1-yl]methyl}-1-methylpyrrolidin-2-yl]methoxy}-5H,6H,8H-pyrido[3,4-d]pyrimidin-4-yl]-1-(prop-2-enoyl)piperazin-2-yl]acetonitrile], in test [1], the DC50 was over 1000 nM. Also, the IC50 in test [2] and in test [3] was under 100 nM each time. The compound also gave an EC50 in test [4] of 100 to 1000 nM.

`C=CC(=O)N1CCN(c2nc(OC[C@@H]3C[C@H](N4CCC5(CCN(Cc6ccc(-n7c(O)nnc7-c7cc(C)c(O)cc7O)cc6)CC5)CC4)CN3C)nc3c2CCN(c2cccc4cccc(Cl)c24)C3)C[C@@H]1CC#N` [Compound 228, 2-[(2S)-4-[7-(8-chloronaphthalen-1-yl)-2-{[(2S,4S)-4-[9-({4-[3-(2,4-Dihydroxy-5-methylphenyl)-5-hydroxy-1,2,4-triazol-4-yl]phenyl}methyl)-3,9-diazaspiro[5.5]undecan-3-yl]-1-methylpyrrolidin-2-yl]methoxy}-5H,6H,8H-pyrido[3,4-d]pyrimidin-4-yl]-1-(prop-2-enoyl)piperazin-2-yl]acetonitrile] returned a DC50 in test [1] of over 1000 nM. The IC50 in test [2] and in test [3] was under 100 nM throughout. This compound gave an EC50 in test [4] of 100 to 1000 nM.

For the compound `C=CC(=O)N1CCN(c2nc(OC[C@@H]3C[C@H](C(=O)N[C@@H]4CCCN(Cc5ccc(-n6c(O)nnc6-c6cc(C(C)C)c(O)cc6O)cc5)C4)CN3C)nc3c2CCN(c2cccc4cccc(Cl)c24)C3)C[C@@H]1CC#N` [Compound 229, (3S,5S)-5-({[7-(8-chloronaphthalen-1-yl)-4-[(3S)-3-(cyanomethyl)-4-(prop-2-enoyl)piperazin-1-yl]-5H,6H,8H-pyrido[3,4-d]pyrimidin-2-yl]oxy}methyl)-N-[(3R)-1-({4-[3-(2,4-dihydroxy-5-isopropylphenyl)-5-hydroxy-1,2,4-triazol-4-yl]phenyl}methyl)piperidin-3-yl]-1-methylpyrrolidine-3-carboxamide], the DC50 in test [1] is over 1000 nM. Besides, the IC50 in test [2] and in test [3] was under 100 nM throughout. For the same compound, the EC50 in test [4] is over 1000 nM.

As for `C=CC(=O)N1CCN(c2nc(OC[C@@H]3C[C@H](C(=O)N4CC5(CCN(Cc6ccc(-n7c(O)nnc7-c7cc(C(C)C)c(O)cc7O)cc6)CC5)C4)CN3C)nc3c2CCN(c2cccc4cccc(Cl)c24)C3)C[C@@H]1CC#N` [Compound 230, 2-[(2S)-4-[7-(8-chloronaphthalen-1-yl)-2-{[(2S,4S)-4-[7-({4-[3-(2,4-dihydroxy-5-isopropylphenyl)-5-hydroxy-1,2,4-triazol-4-yl]phenyl}methyl)-2,7-diazaspiro[3.5]nonane-2-carbonyl]-1-methylpyrrolidin-2-yl]methoxy}-5H,6H,8H-pyrido[3,4-d]pyrimidin-4-yl]-1-(prop-2-enoyl)piperazin-2-yl]acetonitrile], the DC50 in test [1] was over 1000 nM. Further, the IC50 in test [2] and in test [3] was under 100 nM in each case. In test [4], the EC50 lay within 100 to 1000 nM.

In test [1], `C=CC(=O)N1CCN(c2nc(OCC3CN(Cc4ccc(-n5c(O)nnc5-c5cc(C(C)C)c(O)cc5O)cc4)C3)nc3c2CCN(c2cccc4cccc(Cl)c24)C3)C[C@@H]1CC#N` [Compound 231, (S)-2-(1-acryloyl-4-(7-(8-chloronaphthalen-1-yl)-2-((1-(4-(3-(2,4-dihydroxy-5-isopropylphenyl)-5-hydroxy-4H-1,2,4-triazol-4-yl)benzyl)azetidin-3-yl)methoxy)-5,6,7,8-tetrahydropyrido[3,4-d]pyrimidin-4-yl)piperazin-2-yl)acetonitrile] gave a DC50 of over 1000 nM. Also, the IC50 in test [2] was 100 to 1000 nM; in test [3], under 100 nM. In test [4], this compound came in with an EC50 of over 1000 nM.

`C=CC(=O)N1CCN(c2nc(OCC3CN(Cc4ccc(-n5c(O)nnc5-c5cc(C)c(O)cc5O)cc4)C3)nc3c2CCN(c2cccc4cccc(Cl)c24)C3)C[C@@H]1CC#N` [Compound 232, (S)-2-(1-acryloyl-4-(7-(8-chloronaphthalen-1-yl)-2-((1-(4-(3-(2,4-dihydroxy-5-methylphenyl)-5-hydroxy-4H-1,2,4-triazol-4-yl)benzyl)azetidin-3-yl)methoxy)-5,6,7,8-tetrahydropyrido[3,4-d]pyrimidin-4-yl)piperazin-2-yl)acetonitrile] came in with a DC50 in test [1] of over 1000 nM. Besides, the IC50 in test [2] and in test [3] was under 100 nM throughout. Also, the EC50 in test [4] was over 1000 nM.

In test [1], `C=CC(=O)N1CCN(c2nc(OC[C@@H]3C[C@H](N4CCC(C(=O)N5CCN(Cc6ccc(-n7c(O)nnc7-c7cc(CC)c(O)cc7O)cc6)CC5)CC4)CN3C)nc3c2CCN(c2cccc4cccc(Cl)c24)C3)C[C@@H]1CC#N` [Compound 233, 2-[(2S)-4-[7-(8-chloronaphthalen-1-yl)-2-{[(2S,4S)-4-{4-[4-({4-[3-(5-ethyl-2,4-dihydroxyphenyl)-5-hydroxy-1,2,4-triazol-4-yl]phenyl}methyl)piperazine-1-carbonyl]piperidin-1-yl}-1-methylpyrrolidin-2-yl]methoxy}-5H,6H,8H-pyrido[3,4-d]pyrimidin-4-yl]-1-(prop-2-enoyl)piperazin-2-yl]acetonitrile] came in with a DC50 of over 1000 nM. For the same compound, the IC50 in test [2] and in test [3] was under 100 nM each time. For the same compound, in test [4], the concentration for a half-maximal effect (EC50) is over 1000 nM.

In turn, `C=CC(=O)N1CCN(c2nc(OC[C@@H]3C[C@H](N4CCC(C(=O)N5CCN(Cc6ccc(-n7c(C(=O)NC)nnc7-c7cc(C(C)C)c(O)cc7O)cc6)CC5)CC4)CN3C)nc3c2CCN(c2cccc4cccc(Cl)c24)C3)C[C@@H]1CC#N` [Compound 234, 4-{4-[(4-{1-[(3S,5S)-5-({[7-(8-chloronaphthalen-1-yl)-4-[(3S)-3-(cyanomethyl)-4-(prop-2-enoyl)piperazin-1-yl]-5H,6H,8H-pyrido[3,4-d]pyrimidin-2-yl]oxy}methyl)-1-methylpyrrolidin-3-yl]piperidine-4-carbonyl}piperazin-1-yl)methyl]phenyl}-5-(2,4-dihydroxy-5-isopropylphenyl)-N-methyl-1,2,4-triazole-3-carboxamide] showed a DC50 in test [1] of over 1000 nM. Further, the IC50 in test [2] and in test [3] was under 100 nM throughout. This compound displayed an EC50 in test [4] of 100 to 1000 nM.
